1 molecule from patent publication US9120793B2, “Triazolo-pyridine compound” (Eli Lilly and Company, priority 2013, dated 2015) can be followed below.

The assay deals with T1, PPARγ (Homo sapiens, UniProt P37231).
T1 construct: expressed in transfected cells; host or cells: CV1 (African green monkey kidney)
T1 sequence (P37231 1-505): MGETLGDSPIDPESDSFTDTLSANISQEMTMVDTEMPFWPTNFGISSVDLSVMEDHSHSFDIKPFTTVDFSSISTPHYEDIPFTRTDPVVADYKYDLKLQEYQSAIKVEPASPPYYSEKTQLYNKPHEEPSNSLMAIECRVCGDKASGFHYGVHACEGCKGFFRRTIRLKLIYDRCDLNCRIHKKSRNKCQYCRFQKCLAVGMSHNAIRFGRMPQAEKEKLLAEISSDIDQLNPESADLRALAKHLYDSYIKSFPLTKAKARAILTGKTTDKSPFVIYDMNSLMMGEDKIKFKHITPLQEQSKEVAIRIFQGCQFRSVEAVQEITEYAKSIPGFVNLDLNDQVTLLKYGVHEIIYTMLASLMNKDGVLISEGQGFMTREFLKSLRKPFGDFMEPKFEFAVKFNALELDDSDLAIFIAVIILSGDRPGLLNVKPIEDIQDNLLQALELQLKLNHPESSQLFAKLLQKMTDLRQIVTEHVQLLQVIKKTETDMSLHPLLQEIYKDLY
T1 sequence (P19793 1-462 partner): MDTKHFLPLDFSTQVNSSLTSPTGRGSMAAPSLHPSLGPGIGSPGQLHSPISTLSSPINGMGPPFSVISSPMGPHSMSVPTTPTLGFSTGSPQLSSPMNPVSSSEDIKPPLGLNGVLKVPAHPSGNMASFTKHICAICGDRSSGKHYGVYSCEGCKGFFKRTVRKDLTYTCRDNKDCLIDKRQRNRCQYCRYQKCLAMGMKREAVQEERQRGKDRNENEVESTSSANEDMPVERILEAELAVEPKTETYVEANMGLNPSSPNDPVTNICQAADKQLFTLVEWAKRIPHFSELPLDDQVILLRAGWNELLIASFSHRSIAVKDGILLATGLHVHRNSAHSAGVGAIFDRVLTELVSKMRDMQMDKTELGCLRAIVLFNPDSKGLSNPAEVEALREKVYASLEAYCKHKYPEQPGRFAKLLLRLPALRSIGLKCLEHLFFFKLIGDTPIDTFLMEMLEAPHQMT
Nature of the assay: PPARγ reporter (CTF)/functional assay in CV1 cells. Format: cell-based. The text has this: Because GPR-40 is known to be activated by ligands to PPARγ, exemplified compounds are examined in PPARα, PPARδ, and PPARγ reporter assays to determine the selectivity of an exemplified compound. CV1 cells, which are derived from the renal tissue of an African green monkey, are transfected with various receptor and reporter plasmids using Fugene. For the PPARα and PPARδ assays, a reporter plasmid containing five tandem copies of the yeast transcription protein Gal4 response element, cloned upstream of a firefly luciferase gene driven by the major late promoter of adenovirus, is transfected together with a Simian Virus 40 (SV40) driven plasmid constitutively expressing a hybrid protein containing the Gal4 DNA binding domain (DBD), and either the PPARα or PPARδ ligand binding domain. For the PPARγ assay, plasmids encoding PPARγ and RXRα, both driven by a cytomegalovirus (CMV) promoter are transfected together with a plasmid containing luciferase reporter cDNA driven by the TK promoter and a receptor response element (2×PPRE). […] After 24 hours incubation with compound, cells are lysed and luciferase activity is determined as a measure of receptor activation by luminescence. […] The maximum percent stimulation is determined versus maximum stimulation obtained with 10 μM of an appropriate PPAR agonist reference compound. […]

Structures are written as SMILES. pEC50: −log10 of the molar value.

Usually pEC50 stands for the EC50 on a negative log10 scale, so that one unit is a factor of ten. Take `CC#C[C@@H](CC(=O)O)c1ccc(OCc2ccc3nc(-c4c(C)cccc4C)nn3c2)cc1` [Example 1, (3S)-3-[4-[[2-(2,6-Dimethylphenyl)-[1,2,4]triazolo[1,5-a]pyridin-6-yl]methoxy]phenyl]hex-4-ynoic acid]: the pEC50 (CV1 cells, luciferase reporter, 24 hours) was 5.59. Moreover, the Emax (CV-1, versus 10 μM PPAR agonist reference compound, <20% considered negative, read-out: % efficacy in PPARγ CTF assay) turned out to be 17%.
